Source: ChEMBL document CHEMBL4229471, “Antiprotozoal and cysteine proteases inhibitory activity of dipeptidyl enoates” (Bioorg Med Chem, 2018)
pIC50, pKi: −log10 of the molar value. Calls of active or inactive are those of the source. No cut-off for these calls is given here.

Legend:
Falcipain 2 = target: T1, Falcipain 2 (Plasmodium falciparum, UniProt Q9N6S8); test: Inhibition of Plasmodium falciparum falcipain-2 using Cbz-Phe-Arg-AMC as substrate measured for 15 mins by spectrofluorimetric method
T1 sequence (Q9N6S8 whole entry): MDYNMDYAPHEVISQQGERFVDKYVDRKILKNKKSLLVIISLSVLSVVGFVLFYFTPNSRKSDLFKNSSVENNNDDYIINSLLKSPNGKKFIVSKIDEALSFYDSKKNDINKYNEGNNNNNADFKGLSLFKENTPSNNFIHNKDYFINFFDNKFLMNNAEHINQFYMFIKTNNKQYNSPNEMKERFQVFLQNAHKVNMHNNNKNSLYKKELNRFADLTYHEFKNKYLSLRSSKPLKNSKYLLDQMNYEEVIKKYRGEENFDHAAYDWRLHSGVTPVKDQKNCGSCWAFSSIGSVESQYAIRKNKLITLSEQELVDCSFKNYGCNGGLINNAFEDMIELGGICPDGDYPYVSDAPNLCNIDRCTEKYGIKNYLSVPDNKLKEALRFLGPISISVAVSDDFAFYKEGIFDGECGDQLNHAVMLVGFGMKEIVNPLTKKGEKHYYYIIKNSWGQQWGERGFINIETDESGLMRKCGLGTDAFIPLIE

[1] = Cytotoxicity against human HepG2 cells assessed as cell viability at 1 uM measured after 24 hrs by spectrophotometric method relative to control; type: cell-based; details: read-out: Activity
[2] = target: T2, Falcipain 2 (Plasmodium falciparum) (UniProt Q9N6S8); test: Inhibition of Plasmodium falciparum falcipain-2 at 20 uM using Cbz-Phe-Arg-AMC as substrate measured for 15 mins by spectrofluorimetric method relative to control
T2 sequence (whole entry): T1 sequence (Q9N6S8 whole entry)

Trypanosoma cruzi = test: Antitrypanosomal activity against Trypanosoma cruzi Tulahuen strain C2C4 amastigote forms harboring LacZ infected in rat L6 cells after 96 hrs by CPRG/Nonidet reagent based photometric method; type: functional, organism-based; details: Tulahuen strain C2C4, L6, 96 h
[3] = target: Rhodesain (Trypanosoma brucei rhodesiense) (UniProt Q95PM0); test: Inhibition of Trypanosoma brucei rhodesiense rhodesain assessed as second-order rate constant using Cbz-Phe-Arg-AMC as substrate measured for 30 mins by fluorescence method
Rhodesain (Trypanosoma brucei rhodesiense), sequence (Q95PM0 1-450): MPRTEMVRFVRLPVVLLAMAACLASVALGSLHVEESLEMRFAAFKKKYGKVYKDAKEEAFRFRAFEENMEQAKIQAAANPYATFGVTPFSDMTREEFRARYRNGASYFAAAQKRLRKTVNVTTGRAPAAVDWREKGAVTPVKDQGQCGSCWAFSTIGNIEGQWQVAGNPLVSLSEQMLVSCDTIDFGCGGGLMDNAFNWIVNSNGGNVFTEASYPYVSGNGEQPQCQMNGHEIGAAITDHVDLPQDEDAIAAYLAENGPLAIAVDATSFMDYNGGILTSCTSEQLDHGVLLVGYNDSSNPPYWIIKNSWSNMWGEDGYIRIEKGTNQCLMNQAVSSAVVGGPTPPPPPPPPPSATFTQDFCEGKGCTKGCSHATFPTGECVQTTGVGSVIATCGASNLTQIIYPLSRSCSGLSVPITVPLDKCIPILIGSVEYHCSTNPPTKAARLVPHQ

[4] = target: Rhodesain (Trypanosoma brucei rhodesiense) (UniProt Q95PM0); test: Inhibition of Trypanosoma brucei rhodesiense rhodesain at 20 uM using Cbz-Phe-Arg-AMC as substrate measured for 30 mins by fluorescence method relative to control
Plasmodium falciparum = test: Antimalarial activity against erythrocytic stage of synchronized Plasmodium falciparum Dd2 after 48 hrs by Picogreen dye based fluorescence assay; type: functional, organism-based; details: Dd2, 48 h
Cathepsin B [5] = target: T3, Cathepsin B (Homo sapiens, UniProt P07858); test: Inhibition of human cathepsin B at 20 uM using Cbz-Phe-Arg-AMC as substrate relative to control
Cathepsin B [6] = target: T3, Cathepsin B; test: Inhibition of human cathepsin B assessed as second order rate constant using Cbz-Phe-Arg-AMC as substrate
[7] = target: T2, Falcipain 2 (Plasmodium falciparum); test: Inhibition of Plasmodium falciparum falcipain-2 assessed as second-order rate constant using Cbz-Phe-Arg-AMC as substrate measured for 15 mins by spectrofluorimetric method
Rhodesain = Rhodesain (Trypanosoma brucei rhodesiense, UniProt Q95PM0); test: Inhibition of Trypanosoma brucei rhodesiense rhodesain using Cbz-Phe-Arg-AMC as substrate measured for 30 mins by fluorescence method
Rhodesain, sequence (Q95PM0 whole entry): as the sequence (Q95PM0 1-450) above

[8] = test system: Trypanosoma brucei rhodesiense; test: Antiprotozoal activity against patient derived Trypanosoma brucei rhodesiense STIB 900 bloodstream form after 70 hrs by Alamar Blue assay; type: functional, organism-based; details: STIB 900, 70 h
Leishmania donovani = test: Antileishmanial activity against Leishmania donovani MHOM/ET/67/L82 axenic amastigotes after 70 hrs by alamar blue staining based fluorescence assay; type: functional, organism-based; details: MHOM/ET/67/L82, 70 h
[9] = target: Cruzipain (Trypanosoma cruzi) (UniProt P25779); test: Inhibition of Trypanosoma cruzi cruzain at 20 uM relative to control
Cruzipain (Trypanosoma cruzi), sequence (P25779 123-467 limits assumed): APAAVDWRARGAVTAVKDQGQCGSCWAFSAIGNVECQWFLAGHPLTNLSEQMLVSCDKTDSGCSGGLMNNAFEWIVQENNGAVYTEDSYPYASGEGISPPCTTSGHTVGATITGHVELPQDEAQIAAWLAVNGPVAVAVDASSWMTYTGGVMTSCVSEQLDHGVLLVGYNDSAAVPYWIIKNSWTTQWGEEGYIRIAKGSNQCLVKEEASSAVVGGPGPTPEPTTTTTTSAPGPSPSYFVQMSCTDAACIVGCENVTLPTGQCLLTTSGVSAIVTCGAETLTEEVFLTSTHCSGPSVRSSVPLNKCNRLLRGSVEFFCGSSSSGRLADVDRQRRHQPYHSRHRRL

Procathepsin L [10] = target: T4, Procathepsin L (Homo sapiens, UniProt P07711); test: Inhibition of human cathepsin L assessed as second order rate constant using Cbz-Phe-Arg-AMC as substrate
Target sequence in this assay (P07711 114-333 limits assumed): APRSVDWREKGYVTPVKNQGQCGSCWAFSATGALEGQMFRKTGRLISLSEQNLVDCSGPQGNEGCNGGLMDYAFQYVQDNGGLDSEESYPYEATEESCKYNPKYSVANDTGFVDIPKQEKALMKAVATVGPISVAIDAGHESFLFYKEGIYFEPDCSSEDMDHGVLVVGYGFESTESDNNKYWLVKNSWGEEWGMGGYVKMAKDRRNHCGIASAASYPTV

Procathepsin L [11] = target: T4, Procathepsin L; test: Inhibition of human cathepsin L at 20 uM using Cbz-Phe-Arg-AMC as substrate relative to control
Target sequence in this assay (P07711 114-333 limits assumed): as above

[12] = target: Cruzipain (Trypanosoma cruzi) (UniProt P25779); test: Reversible inhibition of Trypanosoma cruzi cruzain pretreated for 30 mins followed by substrate addition and measured for 30 mins by dialysis method
[13] = target: Rhodesain (Trypanosoma brucei rhodesiense) (UniProt Q95PM0); test: Irreversible inhibition of Trypanosoma brucei rhodesiense rhodesain using Cbz-Phe-Arg-AMC as substrate pretreated for 30 mins followed by substrate addition and measured for 30 mins by dialysis method
[14] = target: Rhodesain (Trypanosoma brucei rhodesiense) (UniProt Q95PM0); test: Reversible inhibition of Trypanosoma brucei rhodesiense rhodesain using Cbz-Phe-Arg-AMC as substrate pretreated for 30 mins followed by substrate addition and measured for 30 mins by dialysis method
[15] = target: T2, Falcipain 2 (Plasmodium falciparum); test: Irreversible inhibition of Plasmodium falciparum falcipain-2 using Cbz-Phe-Arg-AMC as substrate pretreated for 30 mins followed by substrate addition and measured for 30 mins by dialysis method
[16] = target: T2, Falcipain 2 (Plasmodium falciparum); test: Reversible inhibition of Plasmodium falciparum falcipain-2 using Cbz-Phe-Arg-AMC as substrate pretreated for 30 mins followed by substrate addition and measured for 30 mins by dialysis method
[17] = target: Cruzipain (Trypanosoma cruzi) (UniProt P25779); test: Inhibition of Trypanosoma cruzi cruzain assessed as second-order rate constant
Procathepsin L [18] = target: T4, Procathepsin L; test: Inhibition of human cathepsin L using Cbz-Phe-Arg-AMC as substrate
Target sequence in this assay (P07711 whole entry): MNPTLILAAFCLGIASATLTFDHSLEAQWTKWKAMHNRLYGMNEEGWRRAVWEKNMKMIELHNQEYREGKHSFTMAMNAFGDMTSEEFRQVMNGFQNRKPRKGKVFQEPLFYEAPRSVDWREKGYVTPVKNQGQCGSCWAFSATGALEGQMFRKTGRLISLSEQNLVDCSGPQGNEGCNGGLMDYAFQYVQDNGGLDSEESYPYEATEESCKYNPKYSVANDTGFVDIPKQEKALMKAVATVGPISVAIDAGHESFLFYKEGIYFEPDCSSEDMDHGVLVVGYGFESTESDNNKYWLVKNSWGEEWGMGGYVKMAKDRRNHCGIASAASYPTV

Cruzipain = Cruzipain (Trypanosoma cruzi, UniProt P25779); test: Inhibition of Trypanosoma cruzi cruzain
Cruzipain, sequence (P25779 whole entry): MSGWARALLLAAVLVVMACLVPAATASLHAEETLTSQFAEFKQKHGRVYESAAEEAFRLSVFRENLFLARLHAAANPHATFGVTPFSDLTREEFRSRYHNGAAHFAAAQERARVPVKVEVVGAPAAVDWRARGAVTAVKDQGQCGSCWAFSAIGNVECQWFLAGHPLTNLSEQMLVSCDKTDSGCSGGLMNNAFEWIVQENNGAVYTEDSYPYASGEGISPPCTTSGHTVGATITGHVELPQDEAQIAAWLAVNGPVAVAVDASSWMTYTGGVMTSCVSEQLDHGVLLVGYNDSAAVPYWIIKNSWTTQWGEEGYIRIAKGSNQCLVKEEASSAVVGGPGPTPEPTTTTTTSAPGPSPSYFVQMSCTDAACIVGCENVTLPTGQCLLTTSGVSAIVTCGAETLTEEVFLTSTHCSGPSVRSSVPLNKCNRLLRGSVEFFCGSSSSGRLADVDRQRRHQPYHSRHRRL

[19] = target: Cruzipain (Trypanosoma cruzi) (UniProt P25779); test: Irreversible inhibition of Trypanosoma cruzi cruzain pretreated for 30 mins followed by substrate addition and measured for 30 mins by dialysis method
Cathepsin B [20] = target: T3, Cathepsin B; test: Inhibition of human cathepsin B using Cbz-Phe-Arg-AMC as substrate

CCOC(=O)/C=C/C(=O)[C@H](CCc1ccccc1)NC(=O)[C@H](Cc1ccccc1)NC(=O)OCc1ccccc1 gave a pIC50 (Falcipain 2) of 7.22, a viability at 24 h, 1 µM [1] of 100% and an inhibition [2] of 100%. It also gave a pIC50 (Trypanosoma cruzi) of 4.70, a K [3] of 1.27e+06 M⁻¹ s⁻¹ and an inhibition [4] of 100%. The pIC50 (Plasmodium falciparum) was 4.79, the inhibition (Cathepsin B [5]) was 100% and the K (Cathepsin B [6]) was 45500 M⁻¹ s⁻¹. It also gave a K [7] of 17100 M⁻¹ s⁻¹, a pIC50 (Rhodesain) of 7.52 and a pIC50 [8] of 6.03. It also gave a pIC50 (Leishmania donovani) of 4.90, an inhibition [9] of 99% and a K (Procathepsin L [10]) of 45300 M⁻¹ s⁻¹. For the same molecule, the inhibition (Procathepsin L [11]) was 100%.

With CCOC(=O)/C=C/C=C/C(=O)[C@H](CCc1ccccc1)NC(=O)[C@H](Cc1ccccc1)NC(=O)N1CCOCC1 the inhibition [12] was “Active”, the inhibition [13] was “Active” and the inhibition [4] was 98%. For the same molecule, the inhibition [14] was “Active”, the inhibition (Cathepsin B [5]) was 90% and the inhibition [15] was “Active”. For the same molecule, the inhibition [16] was “Active”, the K [17] was 0.56 M⁻¹ s⁻¹ and the pIC50 (Rhodesain) was 6.25. The pIC50 (Procathepsin L [18]) was 5.83, the pKi (Procathepsin L [18]) was 3.11 and the pIC50 (Cruzipain) was < 5.70. The inhibition [19] was “Active”, the pIC50 (Cathepsin B [20]) was 5.65 and the pKi (Cathepsin B [20]) was 5.85. It also gave an inhibition (Procathepsin L [11]) of 99%.
